Data set [1] concerns Respiratory Syncytial Virus (RSV) long strain. The data set is described as follows: microbe, parasite or virus in culture. It counts as cell-based. The following applies: human respiratory syncytial virus, Tables A and B list compounds by EC50 band. Summed up:
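HEp-2 cells infected with 100 TCID50 virus per well, compounds in duplicate, 9-point 1/3 dilutions from 100 μM or 1 μM, 1% DMSO. After 5 days at 37 °C, cell viability (CPE protection) read by CCK-8 absorbance at 450 nm, 630 nm background.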

Data set [2] can be described thus: Cytotoxicity Determination (CCK-8, without addition of virus). The data set is classed as cell-based. Particulars: human, 50% cytotoxicity concentration (CC50). Summed up: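 HEp-2 cells were seeded at 1,500 cells/well one day before compound addition. Compounds were tested without virus in duplicate over 7 points from 100 μM in 1/2 steps, with 1% final DMSO, 5 days at 37 °C, 5% CO2. Viability was read by CCK-8 after 3-4 hours.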

For a further data set, the target named is recombinant RSV complex (Human respiratory syncytial virus A, UniProt P28887). Briefly: RSV Polymerase Inhibition Assay. The data set is classed as biochemical. Summed up:
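10 nM recombinant RSV polymerase complex in Tris-HCl pH 7.5, 6 mM MgCl2 with RNA oligonucleotide template and radionucleotides, incubated 2 h at 30 °C with increasing inhibitor concentrations. Reaction stopped with EDTA; radiolabeled RNA product counted by scintillation.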

A further data set concerns RSV replicon. Briefly: microbe, parasite or virus in culture. The data set is classed as cell-based. Particulars: human respiratory syncytial virus, read-out: EC50, the concentration of the drug required for reducing RSV replicon RNA by 50%. (In general: Replicon systems follow genome replication, usually without infectious particles.)
Setting [3] is: HEp-2, 120 h, read-out: 50% effective concentration (EC50), HEp-2 cells infected with RSV long strain, 5 days, CCK-8 readout.
The mark [4] stands for this setting: 120 h, read-out: 50% effective concentration (EC50), HEp-2 cells infected with RSV long strain, 5 days, CCK-8 readout.

Results on 25 compounds are retold here after US11021444B2, “Antiviral compounds” (priority 2013, dated 2021).

For orientation: CC50 means the concentration at which the toxic effect on the cells reaches its halfway point. Low values mean harm at low concentration, high ones better tolerance by the cells.

The structures appear in SMILES notation. pEC50, pIC50: −log10 of the molar value. Read-outs that look alike come from different tables or passages of the source. Bounds are passed on as bounds.

Sequence of recombinant RSV complex (P28887 whole entry): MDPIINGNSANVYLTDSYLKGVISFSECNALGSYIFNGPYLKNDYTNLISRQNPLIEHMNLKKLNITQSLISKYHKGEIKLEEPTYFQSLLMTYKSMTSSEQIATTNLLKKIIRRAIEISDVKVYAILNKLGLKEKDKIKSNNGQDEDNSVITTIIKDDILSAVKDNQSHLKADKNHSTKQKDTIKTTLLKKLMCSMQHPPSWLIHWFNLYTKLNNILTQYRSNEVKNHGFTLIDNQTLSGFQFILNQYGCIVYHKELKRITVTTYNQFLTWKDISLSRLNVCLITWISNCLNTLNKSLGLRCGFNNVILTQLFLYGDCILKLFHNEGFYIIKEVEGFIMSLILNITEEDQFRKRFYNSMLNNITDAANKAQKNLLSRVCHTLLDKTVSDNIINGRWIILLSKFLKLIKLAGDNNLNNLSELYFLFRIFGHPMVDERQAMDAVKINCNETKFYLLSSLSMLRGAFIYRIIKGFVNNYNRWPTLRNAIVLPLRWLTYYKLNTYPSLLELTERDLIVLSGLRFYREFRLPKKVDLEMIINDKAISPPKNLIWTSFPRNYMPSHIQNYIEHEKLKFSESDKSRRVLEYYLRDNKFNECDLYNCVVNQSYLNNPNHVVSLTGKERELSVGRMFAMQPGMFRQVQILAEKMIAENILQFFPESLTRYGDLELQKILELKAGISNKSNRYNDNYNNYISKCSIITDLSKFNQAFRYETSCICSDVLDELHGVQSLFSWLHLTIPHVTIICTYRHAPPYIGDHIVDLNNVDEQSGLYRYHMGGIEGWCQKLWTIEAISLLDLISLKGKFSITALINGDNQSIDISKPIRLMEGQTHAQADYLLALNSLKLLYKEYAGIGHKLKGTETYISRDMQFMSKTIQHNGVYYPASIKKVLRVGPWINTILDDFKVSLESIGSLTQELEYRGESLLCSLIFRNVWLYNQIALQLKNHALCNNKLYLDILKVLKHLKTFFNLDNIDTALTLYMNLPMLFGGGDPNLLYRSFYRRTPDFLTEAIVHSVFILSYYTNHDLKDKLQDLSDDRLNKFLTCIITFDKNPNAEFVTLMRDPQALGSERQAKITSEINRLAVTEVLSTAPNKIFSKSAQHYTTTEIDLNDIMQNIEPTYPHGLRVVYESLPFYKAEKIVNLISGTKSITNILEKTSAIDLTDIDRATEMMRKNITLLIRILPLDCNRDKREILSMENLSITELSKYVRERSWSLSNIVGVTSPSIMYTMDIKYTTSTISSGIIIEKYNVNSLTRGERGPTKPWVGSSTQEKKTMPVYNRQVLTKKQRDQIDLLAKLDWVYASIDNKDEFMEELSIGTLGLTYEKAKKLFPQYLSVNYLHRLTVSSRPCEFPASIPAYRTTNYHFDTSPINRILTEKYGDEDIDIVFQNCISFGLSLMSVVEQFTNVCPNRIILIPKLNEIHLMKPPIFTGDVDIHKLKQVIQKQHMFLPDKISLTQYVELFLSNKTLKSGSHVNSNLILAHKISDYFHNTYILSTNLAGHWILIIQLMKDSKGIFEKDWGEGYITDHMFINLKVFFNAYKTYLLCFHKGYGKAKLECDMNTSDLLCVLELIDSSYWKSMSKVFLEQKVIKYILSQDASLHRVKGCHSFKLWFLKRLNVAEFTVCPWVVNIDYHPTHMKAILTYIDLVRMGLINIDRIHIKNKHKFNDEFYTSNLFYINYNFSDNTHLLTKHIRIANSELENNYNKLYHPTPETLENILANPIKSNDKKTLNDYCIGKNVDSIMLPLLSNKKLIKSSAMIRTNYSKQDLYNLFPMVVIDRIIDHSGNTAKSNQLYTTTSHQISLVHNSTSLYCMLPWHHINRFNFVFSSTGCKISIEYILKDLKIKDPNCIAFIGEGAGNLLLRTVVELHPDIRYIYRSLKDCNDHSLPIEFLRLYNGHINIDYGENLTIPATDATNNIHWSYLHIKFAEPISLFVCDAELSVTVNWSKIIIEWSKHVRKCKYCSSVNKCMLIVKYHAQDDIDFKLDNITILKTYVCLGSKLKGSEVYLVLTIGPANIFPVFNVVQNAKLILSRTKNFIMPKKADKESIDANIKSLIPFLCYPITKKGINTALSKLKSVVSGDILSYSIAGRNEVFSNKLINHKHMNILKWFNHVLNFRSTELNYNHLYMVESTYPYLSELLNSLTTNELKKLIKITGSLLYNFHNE
Sequence of recombinant RSV complex (P03421 whole entry, further chain): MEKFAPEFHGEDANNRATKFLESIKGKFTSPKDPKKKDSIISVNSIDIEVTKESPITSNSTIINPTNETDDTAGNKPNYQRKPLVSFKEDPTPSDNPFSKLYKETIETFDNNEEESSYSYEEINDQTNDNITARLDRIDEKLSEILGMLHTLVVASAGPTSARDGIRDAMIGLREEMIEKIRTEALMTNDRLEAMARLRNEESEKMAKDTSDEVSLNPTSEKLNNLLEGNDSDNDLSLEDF
Protocol for RSV replicon: The Renilla Luciferase Assay System (Promega, Cat. #E2820) was used to measure anti-RSV replicon activity. […] Luminescence was recorded using a Perkin Elmer multilabel counter Victor3V. EC50, the concentration of the drug required for reducing RSV replicon RNA by 50% in relation to the untreated cell control value, was calculated from the plot of percentage reductions of the optical density (OD) value against the drug concentrations using the Microsoft Excel forecast function.

As to `COc1cc(C(=O)NCC(O)(c2ccc(OC)c(-c3ccc(F)c(Cl)c3)n2)C(C)(C)C)ccc1OCCF` (stereo not shown) [Compound 313], the pEC50 (in data set [1] (setting [3]); with RSV replicon) was 4.30 to 6.00 each time. In data set [2], the CC50 at 5 days was 10000 to 100000 nM. Also, the pIC50 on recombinant RSV complex is > 5.00.

Regarding `CCOc1ccc(C(=O)NCC(O)(c2cc(C(C)(C)N)cc(-c3ccc(F)c(Cl)c3)n2)C(F)(F)F)cc1OC` (stereo not shown) [Compound 315], the pEC50 (in data set [1] (setting [3]); in the data set with RSV replicon) was > 6.00 each time. This compound registered a CC50 at 5 days in data set [2] of 10000 to 100000 nM. Also, the pIC50 on recombinant RSV complex was > 6.00.

With `COc1cc(C(=O)NCC(O)(c2cc(C(C)(C)N)cc(-c3ccc(F)c(Cl)c3)n2)C(F)(F)F)ccc1OC[C@@H](C)O` (stereo partly shown) [Compound 317], the pEC50 (in data set [1] (setting [3]); in the data set on RSV replicon) was > 6.00 in each case. The compound also yielded a CC50 at 5 days in data set [2] of 10000 to 100000 nM. Further, the pIC50 on recombinant RSV complex is > 6.00.

As for `COc1cc(C(=O)NCC(O)(c2cc(C(C)(C)N)cc(-c3ccc(F)cc3)n2)C(F)(F)F)ccc1OC1CC1` (stereo not shown) [Compound 318], the pEC50 (in data set [1] (setting [3]); with RSV replicon) was > 6.00 throughout. In addition, the CC50 at 5 days in data set [2] lay in the range of 10000 to 100000 nM. In addition, the pIC50 on recombinant RSV complex was > 6.00.

`COc1cc(C(=O)NCC(O)(c2cc(C(C)(C)N)cc(-c3ccc(F)c(Cl)c3)n2)C(F)(F)F)cc2cccnc12` (stereo not shown) [Compound 321]: the pEC50 (in data set [1] (setting [3]); in the data set with RSV replicon) was > 6.00 each time. This compound registered a CC50 at 5 days in data set [2] of 10000 to 100000 nM. Besides, the pIC50 on recombinant RSV complex is > 6.00.

As to `COc1cc(C(=O)NCC(O)(c2cc(C(C)(C)N)cc(-c3ccc(F)c(Cl)c3)n2)C(F)(F)F)ccc1OCC(N)=O` (stereo not shown) [Compound 322], the pEC50 (in data set [1] (setting [3]); in the data set on RSV replicon) was > 6.00 each time. In data set [2], this compound gave a CC50 at 5 days of 10000 to 100000 nM. Also, the pIC50 at recombinant RSV complex is > 6.00.

On to `COc1cc(C(=O)NCC(O)(c2cc(C(C)(C)NC(C)=O)cc(-c3ccc(F)c(Cl)c3)n2)C(F)(F)F)ccc1OC1CC1` (stereo not shown) [Compound 326], for which the pEC50 (in data set [1] (setting [3]); in the data set on RSV replicon) was > 6.00 each time. In data set [2], this compound came in with a CC50 at 5 days of 10000 to 100000 nM. Besides, the pIC50 on recombinant RSV complex was > 6.00.

As to `COc1cc(C(=O)NCC(O)(c2cc(CN)cc(-c3ccc(F)c(Cl)c3)n2)C(F)(F)F)ccc1OC1CC1` (stereo not shown) [Compound 327], the pEC50 (in data set [1] (setting [3]); in the data set on RSV replicon) was > 6.00 throughout. Moreover, in data set [2], the CC50 at 5 days is 10000 to 100000 nM. In addition, the pIC50 on recombinant RSV complex was > 6.00.

`COc1cc(C(=O)NCC(O)(c2cc(CNC(C)=O)cc(-c3ccc(F)c(Cl)c3)n2)C(F)(F)F)ccc1OC1CC1` (stereo not shown) [Compound 328]: the pEC50 (in data set [1] (setting [3]); with RSV replicon) was > 6.00 throughout. The compound further returned a CC50 at 5 days in data set [2] of 10000 to 100000 nM. Besides, the pIC50 on recombinant RSV complex was > 6.00.

Turning to `COc1cc(C(=O)NCC(O)(c2cc(C(C)(C)NS(C)(=O)=O)cc(-c3ccc(F)c(Cl)c3)n2)C(F)(F)F)ccc1OC1CC1` (stereo not shown) [Compound 330], the pEC50 (in data set [1] (setting [4]); with RSV replicon) was > 6.00 throughout. In addition, in data set [2], the CC50 at 5 days lay in the range of 10000 to 100000 nM. Besides, the pIC50 on recombinant RSV complex is > 6.00.

For the compound `CCOC(=O)NC(C)(C)c1cc(-c2ccc(F)c(Cl)c2)nc(C(O)(CNC(=O)c2ccc(OC3CC3)c(OC)c2)C(F)(F)F)c1` (stereo not shown) [Compound 331], the pEC50 (in data set [1] (setting [3]); in the data set on RSV replicon) was > 6.00 in each case. The CC50 at 5 days in data set [2] was > 100000 nM. For the same compound, the pIC50 on recombinant RSV complex (read-out: IC50 (compound concentration at which the enzyme-catalyzed rate was reduced by 50%), 10 nM recombinant RSV complex, 2 h at 30° C., Tables E, F and G list compounds by IC50 band) was > 6.00.

As to `COc1cc(C(=O)NCC(O)(c2ccc(OC)c(-c3ccc(F)c(Cl)c3)n2)C(F)(F)F)ccc1OCCO` (stereo not shown) [Compound 334], the pEC50 (in data set [1] (setting [3]); in the data set with RSV replicon) was > 6.00 each time. In data set [2], this compound gave a CC50 at 5 days of 10000 to 100000 nM. Also, the pIC50 on recombinant RSV complex is > 6.00.

`COc1cc(C(=O)NCC(O)(c2cc3c(c(-c4ccc(F)c(Cl)c4)n2)NCC3(C)C)C(F)(F)F)ccc1OC1CC1` (stereo not shown) [Compound 335]: the pEC50 (in data set [1] (setting [3]); in the data set with RSV replicon) was > 6.00 each time. In data set [2], the CC50 at 5 days was > 100000 nM. Also, the pIC50 at recombinant RSV complex is > 6.00.

For `COc1cc(C(=O)NCC(F)(c2ccc(OC)c(-c3ccc(F)c(Cl)c3)n2)C(F)(F)F)ccc1OC[C@@H](C)O` (stereo partly shown) [Compound 342], the pEC50 (in data set [1] (setting [3]); in the data set with RSV replicon) was > 6.00 throughout. The CC50 at 5 days in data set [2] lay in the range of 10000 to 100000 nM. The pIC50 at recombinant RSV complex is > 6.00.

Regarding `COc1cc(C(=O)NCC(F)(c2ccc(OC)c(-c3ccc(F)c(Cl)c3)n2)C(F)(F)F)ccc1OCC(N)=O` (stereo not shown) [Compound 343], the pEC50 (in data set [1] (setting [3]); with RSV replicon) was > 6.00 each time. Moreover, the half-maximal cytotoxic concentration (CC50) at 5 days in data set [2] lay within 10000 to 100000 nM. Also, the pIC50 at recombinant RSV complex is > 6.00.

`COc1cc(C(=O)NCC(F)(c2ccc(OC)c(-c3ccc(F)c(Cl)c3)n2)C(F)(F)F)ccc1OC1CCNC1=O` (stereo not shown) [Compound 344]: the pEC50 (in data set [1] (setting [3]); in the data set on RSV replicon) was > 6.00 each time. Further, the CC50 at 5 days in data set [2] is 10000 to 100000 nM. In addition, the pIC50 at recombinant RSV complex was > 6.00.

With `COc1cc(C(=O)NCC(O)(c2ccc(OC)c(-c3ccc(F)c(Cl)c3)n2)C(F)(F)F)ccc1OC1CCNC1=O` (stereo not shown) [Compound 349], the pEC50 (in data set [1] (setting [3]); with RSV replicon) was > 6.00 in each case. In data set [2], this compound registered a CC50 at 5 days of 10000 to 100000 nM. For the same compound, the pIC50 at recombinant RSV complex is > 6.00.

Turning to `COc1cc(C(=O)NCC(O)(c2cc(C(C)(C)NCCF)cc(-c3ccc(F)c(Cl)c3)n2)C(F)(F)F)ccc1OC1CC1` (stereo not shown) [Compound 356], the pEC50 (in data set [1] (setting [3]); with RSV replicon) was > 6.00 each time. In data set [2], this compound had a CC50 at 5 days of 10000 to 100000 nM. For the same compound, on recombinant RSV complex, the pIC50 was > 6.00.

With `COc1cc(C(=O)NCC(O)(c2cc(CN)cc(-c3ccc(F)c(Cl)c3)n2)C(F)(F)F)ccc1OC[C@@H](C)O` (stereo partly shown) [Compound 357], the pEC50 (in data set [1] (setting [3]); in the data set on RSV replicon) was > 6.00 each time. For the same compound, the CC50 at 5 days in data set [2] was 10000 to 100000 nM. The pIC50 at recombinant RSV complex is > 6.00.

`COc1cc(C(=O)NCC(O)(c2ccc(OC)c(-c3ccc(F)c(Cl)c3)n2)C(F)(F)F)ccc1OC1CC1(F)F` (stereo not shown) [Compound 358]: the pEC50 (in data set [1] (setting [3]); in the data set on RSV replicon) was > 6.00 in each case. Moreover, the CC50 at 5 days in data set [2] was > 100000 nM. Moreover, the pIC50 on recombinant RSV complex is > 6.00.

Consider `COc1ccc(C(=O)NCC(O)(c2ccc(OC)c(-c3ccc(F)c(Cl)c3)n2)C2CC2)cc1OC` (stereo not shown) [Compound 359], for which the pEC50 (in data set [1] (setting [3]); in the data set with RSV replicon) was > 6.00 throughout. Besides, the CC50 at 5 days in data set [2] is 10000 to 100000 nM. Also, the pIC50 at recombinant RSV complex is > 6.00.

Take `COc1cc(C(=O)NCC(O)(c2ccc(OC)c(-c3ccc(F)c(Cl)c3)n2)C2CC2)ccc1OCc1ncn[nH]1` (stereo not shown) [Compound 360]: the pEC50 (in data set [1] (setting [4]); with RSV replicon) was > 6.00 throughout. For the same compound, the CC50 at 5 days in data set [2] was in the range of 10000 to 100000 nM. In addition, the pIC50 at recombinant RSV complex was > 6.00.

For the compound `COc1cc(C(=O)NCC(O)(c2cc(CN)cc(-c3ccc(F)cc3)n2)C(F)(F)F)ccc1OC1CC1` (stereo not shown) [Compound 361], the pEC50 (in data set [1] (setting [3]); in the data set on RSV replicon) was > 6.00 each time. Moreover, the CC50 at 5 days in data set [2] lay within 10000 to 100000 nM. Moreover, the pIC50 at recombinant RSV complex is > 6.00.

`COc1cc(C(=O)NCC(O)(c2ccc(OC)c(-c3ccc(F)c(Cl)c3)n2)C(F)(F)F)ccc1OCC(C)=O` (stereo not shown) [Compound 362]: the pEC50 (in data set [1] (setting [3]); in the data set with RSV replicon) was > 6.00 in each case. For the same compound, the CC50 at 5 days in data set [2] is 10000 to 100000 nM. In addition, at recombinant RSV complex, the pIC50 is > 6.00.

Turning to `COc1cc(C(=O)NCC(C)(F)c2ccc(OC)c(-c3ccc(F)c(Cl)c3)n2)ccc1OCCF` (stereo not shown) [Compound 364], the pEC50 (in data set [1] (setting [3]); with RSV replicon) was > 6.00 each time. In data set [2], the CC50 at 5 days lay within 10000 to 100000 nM. Moreover, on recombinant RSV complex, the pIC50 was > 6.00.
